From PubChem BioAssay (NCI)
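In this assay, cells in 96-well plates receive the compound at five concentrations for 48 hours. Endpoints are linearly interpolated between the surrounding concentrations. GI50 = concentration required for 50% inhibition of growth. The concentration for full growth arrest is given as TGI.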

How the values were obtained:
Experiment in all cases: inhibition of tumour cell growth, NCI panel, 48 h
UACC-257 melanoma = tested on: UACC-257 melanoma
SNB-75 CNS = tested on: SNB-75 CNS
NCI-H23 lung = tested on: NCI-H23 lung
MALME-3M melanoma = tested on: MALME-3M melanoma
HL-60(TB) leukemia = tested on: HL-60(TB) leukemia
SK-MEL-28 melanoma = tested on: SK-MEL-28 melanoma
CAKI-1 renal = tested on: CAKI-1 renal
CCRF-CEM leukemia = tested on: CCRF-CEM leukemia
OVCAR-3 ovarian = tested on: OVCAR-3 ovarian
OVCAR-5 ovarian = tested on: OVCAR-5 ovarian

Compound	GI50 (UACC-257 melanoma) [µM]	TGI (UACC-257 melanoma) [µM]	GI50 (SNB-75 CNS) [µM]	TGI (SNB-75 CNS) [µM]	GI50 (NCI-H23 lung) [µM]	TGI (NCI-H23 lung) [µM]	GI50 (MALME-3M melanoma) [µM]	TGI (MALME-3M melanoma) [µM]	GI50 (HL-60(TB) leukemia) [µM]	TGI (HL-60(TB) leukemia) [µM]	GI50 (SK-MEL-28 melanoma) [µM]	TGI (SK-MEL-28 melanoma) [µM]	GI50 (CAKI-1 renal) [µM]	TGI (CAKI-1 renal) [µM]	GI50 (CCRF-CEM leukemia) [µM]	TGI (CCRF-CEM leukemia) [µM]	GI50 (OVCAR-3 ovarian) [µM]	TGI (OVCAR-3 ovarian) [µM]	GI50 (OVCAR-5 ovarian) [µM]	TGI (OVCAR-5 ovarian) [µM]
COc1ccc2nc3cccc([N+](=O)[O-])c3c(NCCNCCN(C)C)c2c1	0.24	0.604	0.158	0.386	1.72	5.26	0.205	0.538	0.0449	0.352	0.62	3.09	0.0797	0.616	0.0384	0.29	0.0992	0.308	0.0375	0.467
O=C1C=C(Nc2ccc(S(=O)(=O)Nc3ncccn3)cc2)c2ccccc2C1=O	–	41.7	–	59.4	–	34.1	–	43.9	–	72.7	–	60.6	–	89.1	–	> 100	–	30.5	–	34.4
O=C1Nc2ccccc2/C1=C/c1cn(CC(O)Cn2cc(/C=C3\C(=O)Nc4ccccc43)c3ccccc32)c2ccccc12 (configuration not stated)	2.35	4.44	1.33	2.92	1.57	3.36	1.51	3.26	2.95	10.8	1.77	3.5	1.62	3.39	2.84	13.4	1.65	3.3	1.74	4.53
COc1cc(Nc2ncnc(Nc3ccc4c(n3)NC(=O)C(C)(C)O4)n2)cc(OC)c1OC	3.26	> 100	0.169	0.724	2.59	> 100	8.69	> 100	4.52	> 100	> 23.9	> 100	0.319	> 100	3.73	> 100	3.46	> 100	0.602	> 100
Cc1c(C)c2c(c(C)c1OCC(=O)O)CC[C@@](C)(CCC[C@@H](C)CCC[C@@H](C)CCCC(C)C)O2	77.2	183	69.9	141	75.7	200	66.5	130	77.2	156	62.6	129	76.7	151	27.1	189	77.3	154	86.3	155
Oc1c(O)c(Cl)c(Cl)c(Cl)c1Cl	2.92	9.6	2.52	21	3.04	9.28	2.83	13.4	1.85	7.21	4.99	37.2	6.33	23	2.73	27.7	2.44	14.4	9.62	42.5
COc1cccc2nc3c(C(=O)NCCN(C)C)cccc3nc12	–	27.1	–	> 47.9	–	27.2	–	21.9	–	17.5	–	28.8	–	> 100	–	25.7	–	73.9	–	42.4
C=C1C(=O)O[C@H]2[C@H]1CC/C(COC(=O)NCCc1cccc(OC)c1)=C\CC[C@@]1(C)O[C@@H]21	1.53	3.4	1.47	4.71	1.86	4.33	1.84	3.61	1.36	4.34	1.35	3.3	1.19	2.52	0.34	1.93	0.995	2.38	2.25	6.05
Nc1ccc(-c2ccc3ncc4ccc(=O)n(-c5cccc(C(F)(F)F)c5)c4c3c2)cn1	< 0.01	0.0708	< 0.01	0.0227	< 0.013	2.35	< 0.01	0.0315	0.0408	8.66	< 0.01	11.5	< 0.01	1.55	< 0.01	1.93	< 0.01	3.32	< 0.0145	31.5
CC1=C(C#N)C(/C=C(\Cl)c2ccc(F)cc2)C(C#N)=C(C)N1	> 100	> 100	86.3	> 100	> 100	> 100	> 100	> 100	74	> 100	> 100	> 100	> 100	> 100	> 100	> 100	> 100	> 100	> 100	> 100
C/C(O)=C(\N=O)C(=O)NCc1ccccc1	–	> 100	–	> 100	–	> 100	–	> 100	–	> 100	–	> 100	–	> 100	–	> 100	–	> 100	–	> 100
CCOC(=O)C1=C(C(=O)OCC)C2(c3ccccc3)N(O1)c1ccccc1C2(C)C (configuration not stated)	–	> 100	–	89.5	–	> 100	–	> 100	–	53	–	> 100	–	> 100	–	> 100	–	> 100	–	> 100
C[C@H](NC(=O)c1c(C(F)F)nn(C)c1Oc1cccc(C(F)(F)F)c1)c1ccc(C(=O)O)cc1	> 100	> 100	> 100	> 100	> 100	> 100	> 100	> 100	> 100	> 100	> 100	> 100	> 100	> 100	> 100	> 100	> 100	> 100	> 100	> 100
COc1cc2c3c(c1OC)C(=O)C=C3N(S(=O)(=O)c1ccc(C)cc1)CC2	–	> 100	–	> 100	–	> 100	–	> 100	–	> 100	–	> 100	–	> 100	–	> 100	–	> 100	–	> 100
Cc1ccc(C2C(Cl)C(=O)N2NC(=O)c2ccc(N)cc2)cc1 (configuration not stated)	–	66.1	–	> 100	–	38.3	–	32.1	–	31.2	–	26	–	38.3	–	39.2	–	36.7	–	47.9
COc1ccc2[nH]c(C(=O)OCc3ccc4cccc(O)c4n3)cc2c1	2.02	5.68	1.06	2.3	1.44	3.07	1.52	2.89	1.18	3.4	1.61	3	1.13	2.49	0.148	1.11	1.11	2.41	1.45	2.96
COc1ccc2c(c1)O/C(=C\c1cccc(OCC(=O)Nc3nc(C)c(C)s3)c1)C2=O	> 100	> 100	0.862	6.51	1.19	–	1.8	3.92	1.48	3.16	20.9	> 100	1.06	–	0.312	3.07	0.448	1.05	3.79	> 26.3
Cn1cncc1-c1c(F)cncc1NC(=O)c1c(N)nn2cc(F)cnc12	20.9	> 100	6.5	48.6	0.093	1.34	5.16	68.5	0.272	0.717	6.52	86.8	1.45	21.7	0.0723	22.8	0.407	2.29	13	> 100
COc1ccc(-c2nsc3c2NC(=O)CC3c2cccc(Cl)c2)cc1 (configuration not stated)	10.8	> 100	1.53	7.46	4.62	> 100	6.59	> 100	2.28	> 27.6	4.54	> 100	0.981	70.1	2.44	> 100	1.74	> 29	5.3	> 100
NC(CSC(c1ccccc1)(c1ccccc1)c1ccc(F)cc1)C(=O)O (configuration not stated)	0.635	> 100	1.74	–	0.657	> 28.3	2.39	> 100	0.268	2.47	6.04	> 100	0.79	> 26.8	0.289	> 100	0.355	4.38	4.18	> 76.5
N#C/C(=C\c1ccccc1)C(NO)Nc1ccccc1 (configuration not stated)	–	> 100	–	> 100	–	> 100	–	> 100	–	> 100	–	> 100	–	> 100	–	> 100	–	> 100	–	> 100
O=C(N/C(=C/c1cccc([N+](=O)[O-])c1)c1nc2ccc(Cl)cc2[nH]1)c1ccccc1	–	> 100	–	68.3	–	99.5	–	36.4	–	20.2	–	> 100	–	71.3	–	48	–	76.6	–	78.6
Cc1cccc(Nc2cc(Cl)nc(SCC(=O)O)n2)c1C	–	> 100	–	> 100	–	> 100	–	> 100	–	> 100	–	> 100	–	> 100	–	> 100	–	> 100	–	> 100
O=C(NC(=O)c1cn(CCN2CCN(C(=O)NCCCCCCNC(=O)N3CCN(CCn4cc(C(=O)NC(=O)OCc5ccccc5)c(=O)[nH]c4=O)CC3)CC2)c(=O)[nH]c1=O)OCc1ccccc1	–	> 100	–	> 100	–	> 100	–	> 100	–	> 100	–	> 100	–	> 100	–	> 100	–	> 100	–	> 100
O=C(/C=C\n1cnc(-c2cc(C(F)(F)F)cc(C(F)(F)F)c2)n1)N1CC(F)(F)C1	1.17	> 13.1	0.432	6.44	0.391	5.61	1.14	5.84	0.399	> 17.1	0.46	4.81	0.288	6.84	0.407	> 18.8	0.332	3.03	0.671	> 25
COc1ccc(-c2nn3ncccc3c2-c2ccnc(Nc3ccc4c(c3)OCCO4)n2)cc1	9.07	> 25	> 13.9	> 25	9.22	> 25	12.5	> 25	12.9	> 25	16.9	> 25	2.7	> 24.1	6.07	> 25	9.86	> 25	5.72	> 25
CC(C)=C1CCC(CN2CCOCC2)C1=O (configuration not stated)	–	32.5	–	18	–	36.7	–	7	–	14	–	29.1	–	0.908	–	7.9	–	18.4	–	32.5
NCCOc1ncccc1/C=C1\c2ccccc2-c2ccc([N+](=O)[O-])cc21	0.209	1.39	0.0488	0.437	0.0479	0.413	0.055	0.275	0.0165	0.121	0.241	1.06	0.0283	0.231	0.0181	0.0973	0.181	0.449	0.211	0.68
CCOc1ccc(N=Cc2ccnc3ccccc23)cc1	–	> 100	–	> 92.2	–	> 98	–	> 97.7	–	17	–	> 100	–	> 100	–	36.5	–	73.1	–	> 100
C1CC2=C(C1)C1=S(S2)SC2=C1CCC2	–	> 100	–	> 100	–	> 100	–	> 100	–	> 100	–	> 100	–	> 100	–	> 100	–	> 100	–	> 100
